Holding throughout (assay type): cell-based
For one assay, the system named is phi3T. Kind of assay: Growth dynamics of phage-infected cultures (phi3T infection of B. subtilis 168). Here is the method:
Specifically, overnight cultures of B. subtilis strain 168 were diluted 1:50 in LB media supplemented with 0.1 mM MnCl2 and 5 mM MgCl2, and incubated at 37° C. with shaking until reaching optical density (O.D) 600 nm=0.5. Phages (phi29, phi105, rho14 or phi3T) were added to the bacterial culture at MOI=1 and incubated for 3 hours. The media were centrifuged at 4000 rpm for 10 minutes at 4° C. and the supernatant was filtered with 0.2 μm filer (GE Healthcare Life Sciences, Whatman, CAT #10462200). Phages and large molecules were further filtered out from the media by using Amicon Ultra centrifugal filters at a cutoff of 3,000 NMWL (3 kDa) (Milipore, CAT #UFC900324). A plaque assay was performed in order to verify that no phages were left in the medium.
7.5 mg (per reaction) of Proteinase K-Agarose from Tritirachium album (Sigma, CAT #P9290) were washed twice with 750 μl of sterile water and then resuspended with 750 μl of LB supplemented with 0.1 mM MnCl2 and 5 mM MgCl2. Following, the tubes were centrifuged again and the supernatant was discarded. 1.5 ml of phi3T-derived conditioned medium or control medium was added to a tube containing the washed proteinase K. The media were incubated for 2 hours at 37° C. with the proteinase K. The media were centrifuged and the supernatants were collected for the infection assay.
(§1) Overnight cultures of bacteria were diluted 1:100 in LB media and incubated at 37° C. with shaking until reaching O.D 600 nm=0.1. The bacterial culture was centrifuged at 4000 rpm for 10 minutes at room temperature. The supernatant was discarded and the pellet was resuspended in LB medium supplemented with 0.1 mM MnCl2 and 5 mM MgCl2 at 10% of the initial volume. The concentrated bacterial culture was added to conditioned medium or medium supplemented with synthesized arbitrium peptide in a ratio of 1:9 (bacteria to medium) and incubated for 1 hour at room temperature. Following, the culture was infected with phages at MOI=0.1. Optical density measurements at a wavelength of 600 nm were taken using a TECAN Infinite 200 plate reader in a 96-wells plate.

The subject of another assay is spBeta. Kind of assay: Growth dynamics of phage-infected cultures (spBeta infection of B. subtilis BEST7003). Particulars: B. subtilis BEST7003 infected by spBeta at MOI=0.1, LB supplemented with synthesized peptide. Here is the method:
as §1

A further assay addresses AimR (Bacillus phage phi3T, UniProt P0DOE3). Kind of assay: ChIP-seq of His-tagged AimR on phage DNA. Particulars: 15 minutes after phage infection, with or without 1 μM peptide. The protocol: For the ChIP-seq experiments, B. subtilis cell cultures were grown in 100 ml to O.D of 0.1 in LB at 37° C. Following, 50 ml of culture was centrifuged at 4000 rpm for 10 minutes at room temperature. The pellets were then suspended with 25 ml LB either containing or lacking the peptide (SAIRGA, SEQ ID NO: 269) at a final concentration of 1 μM. The cultures were placed for an additional incubation hour at room temperature with shaking. The cultures were then infected with phage (MOI=0.5) having a final plaque forming units (PFU) of 5×10^7 PFU/ml phages. 15 minutes post phage infection the cultures were centrifuged at 3000 g for 5 minutes at 4° C. The supernatant was discarded and the pellets were resuspended with 1 ml of ice-cold 1×PBS (10 mM Phosphate, 137 mM NaCl, 2.7 mM KCl, pH of 7.4).
For the formaldehyde fixation of protein to DNA, the 1 ml PBS resuspended pellets were mixed with 62.5 μl formaldehyde (Thermoscientific 16% formaldehyde solution (w/v) methanol-free ampule) yielding a final formaldehyde concentration of 1% (w/v) within the solution. The formaldehyde-containing cell suspension was incubated at room temperature for 10 minutes with mild agitation. Following, 75 μl 2M Glycine (f.c. 150 mM) was added to quench residual formaldehyde. Glycine-containing samples were kept on ice for an additional 10 minutes followed by centrifugation at 5500 g for 1 minute at 4° C. […]

The test system of assay [1] is Bacillus subtilis BEST7003 containing Construct #1. Briefly: GFP reporter expression, Construct #1. Particulars: Construct #1, peptide 62.5 nM-1000 nM in LB.
Method: (§2) Starter growths of wild type (WT) Bacillus subtilis BEST7003 strain and of Bacillus subtilis BEST7003 strains containing Construct #1 or Construct #2 were cultured in 3 ml Luria-Bertani (LB) broth until the growth curve indicated stationary phase. Following, the bacterial cells were diluted in a ratio of 1/100 in LB broth or LB broth supplemented with a SAIRGA (SEQ ID NO: 269) peptide at a concentration range of 62.5 nM-1000 nM. Optical density (O.D. at 600 nm) and GFP fluorescence levels (488 nm excitation/518 nm emission) were measured over time in a 96 wells plate using a TECAN Infinite 200 plate reader.
Assay [2] deals with Bacillus subtilis BEST7003 containing Construct #2. Briefly: GFP reporter expression, Construct #2. The settings on record: Construct #2, peptide 62.5 nM-1000 nM in LB.
Method: as §2

Molecules are shown by their SMILES.

Chain of AimR (P0DOE3 whole entry): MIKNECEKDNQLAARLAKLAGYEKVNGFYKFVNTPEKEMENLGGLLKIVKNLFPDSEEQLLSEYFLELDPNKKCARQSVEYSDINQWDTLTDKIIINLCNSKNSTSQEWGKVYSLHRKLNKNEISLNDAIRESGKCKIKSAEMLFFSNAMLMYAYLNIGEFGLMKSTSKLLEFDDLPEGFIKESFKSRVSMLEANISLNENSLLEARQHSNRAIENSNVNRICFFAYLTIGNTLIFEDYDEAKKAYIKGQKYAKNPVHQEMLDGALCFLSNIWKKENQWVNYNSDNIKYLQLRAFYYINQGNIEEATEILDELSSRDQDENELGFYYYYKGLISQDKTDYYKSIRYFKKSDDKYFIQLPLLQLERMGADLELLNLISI

On to `CC[C@H](C)[C@H](NC(=O)[C@H](C)NC(=O)[C@@H](N)CO)C(=O)N[C@@H](CCCNC(=N)N)C(=O)NCC(=O)N[C@@H](C)C(=O)O` [SAIRGA, Ser-Ala-Ile-Arg-Gly-Ala], for which the “effect on the phage infection dynamics (culture lysis, growth curve)” value with phi3T (B. subtilis 168 infected by phi3T at MOI=0.1, LB supplemented with synthesized peptide) is listed as “reduced culture lysis”. In addition, the “peptide concentration of maximal effect on the culture growth curve” value in the assay on phi3T (B. subtilis 168 infected by phi3T at MOI=0.1, effect saturated above) is reported as 500 nM. Moreover, in the assay with spBeta, the “effect on lysogeny / infection dynamics of spBeta” value is given as “had no effect on the infection dynamics of spBeta”. Besides, the “binding of AimR to its site in the phage genome (ChIP-seq)” value at AimR is given as “this binding only occurred when the arbitrium peptide was absent”. For the same compound, the “GFP fluorescence in presence of peptide” value in assay [1] is recorded as “fluorescence gradually repressed in a manner proportional to the concentration of the peptide”. Further, in assay [2], the “GFP expression in presence of peptide” value is “differential expression of GFP dependent on the concentration of the peptide”.

Values taken from patent publication US11542508B2, “Isolated polynucleotides and polypeptides and methods of using same for expressing an expression product of interest” (priority 2016, dated 2023).
